A melting point compilation (Tetko et al.; mined from patent text by program, amines drawn as free bases though some values may be those of a salt)

| Structure (SMILES) | melting point [°C] |
| --- | --- |
| CCN(CC)CCn1nc2c3c(c(CN)ccc31)Sc1ccc(OC)cc1-2 | 74 to 76 |
| CC(C)(C)OC(=O)N(CCCC(=O)NO)Cc1cc2nc(-c3cccc4[nH]ncc34)nc(N3CCOCC3)c2s1 | 149 to 152 |
| COc1cccc2c1CC1c3c(cc(OC)c(OC)c3-2)CCN1C (configuration not stated) | 184 to 185 |
| CCCCCC(CC(=O)Nc1cc(C(N)=O)ccc1C(C)(C)C)c1cc(C(=O)OC)c(OC)cc1OC (configuration not stated) | 101 to 103 |
| Cc1nc(Oc2ccccc2)c2nc(C)n(CCNC(=O)OC(C)(C)C)c2c1C | 180 to 182 |
| CNc1cc(NS(=O)(=O)c2ccc(F)cc2)nc(NC)n1 | 261 to 263 |
| O=C1CCNCCNC(=O)CCNCCN1 | 198 to 199 |
| Clc1ccccc1-c1nc2cc(Cn3ccnc3)ccc2[nH]1 | 115 |
| O=C(O)CCCC/C=C(/c1cccnc1)c1cccs1 | 84 to 85 |
| C=CCC(C(=O)O)c1ccc(C(=O)c2cccs2)cc1 (configuration not stated) | 117 |
| CC(=O)C1(c2cccc(OCc3ccc4c(ccc(=O)n4C)c3)c2)CCOCC1 | 125 to 126 |
| C=CCNC(=NCCSCc1[nH]cnc1C)NC#N | 113 to 114 |
| CN1CC(C#CC2CC2)(C(F)(F)F)c2cc(Cl)ccc2NC1=O (configuration not stated) | 177 to 178 |
| CSc1sc(C(N)=O)c2c1-c1nn(C)cc1CC2 | 285 to 286 |
| CCCCCCCNC(=O)N(C)c1cccc(-c2ccc(CCC(=O)O)cc2OCCC(C)C)c1 | 60 to 62 |
| Cc1ccsc1C(Cc1cc(Br)ccc1N)N(C)C (configuration not stated) | 96 to 98 |
| COc1ccc(-n2nc(Sc3ccccc3C)c(C)c(C#N)c2=O)cc1 | 144 to 146 |
| O=C1CCCc2ccc(OCCCCN3CCN(c4cccc5c4OCC5)CC3)nc2N1 | 176 to 177 |
| O=C(O)Cc1ccc(OCCNC(=O)C2Cc3ccccc3N2S(=O)(=O)c2ccc(-c3ccc(F)cc3F)cc2)cc1 (configuration not stated) | 92 to 99 |
| CCCCNc1nc(C)nc2c1nnn2-c1ccc(C(C)C)cc1Br | 149 to 151 |
| Cc1ccc(-c2ccc3c(c2)C=C(C(=O)Nc2ccc(CSc4ccccc4)cc2)CCO3)cc1 | 176 to 177 |
| Cc1nnc(N2N=C(c3ccc([N+](=O)[O-])cc3)c3cc4c(cc3C[C@H]2C)OCO4)o1 | 202 to 204 |
| Cc1nc2nc(SCc3ccccc3)nn2c(C)c1Cl | 164 to 166 |
| CCC12CCC3=C(CC(C)c4cc(OC)ccc43)C1CCC21OCCO1 (configuration not stated) | 122 to 124 |
| CSC(=S)Nc1ccccc1N | 114 |

| Structure (SMILES) | melting point [°C] |
| --- | --- |
| O=C(CN1C(=O)c2ccccc2S1(=O)=O)Nc1ccccc1 | 180 to 182 |
| O=[N+]([O-])c1ccc(Oc2ccc(C(F)(F)F)cc2Cl)nc1 | 69 to 72 |
| COc1cc(C(=O)O)ccc1Cc1cn(C)c2ccc(CC(C)NC(=O)N(C)C)cc12 (configuration not stated) | 162 to 163 |
| COc1ccccc1C1(Cl)C(=O)Nc2ccc(Cl)cc21 (configuration not stated) | 220 to 224 |
| CCOC(=O)c1cc(CC)sc1Nc1cc(F)c(F)cc1[N+](=O)[O-] | 105 |
| O=C(NC1CCCCC1)Oc1ccc(Oc2ccccc2)cc1 | 166 to 168 |
| CCCSc1ncc(C(=O)N[C@H](Cc2ccccc2)C(=O)O)n1Cc1ccccc1Cl | 176 to 177 |
| Cc1cc(N)nc(CCc2nc3cc(-c4ccc(S(=O)(=O)N(C)C)cc4)cnc3[nH]2)c1 | 157 |
| CCOC(=O)C1[C@@H]2[C@@H](O)[C@@H]3O[C@H](c4ccc(F)cc4F)OC[C@H]3O[C@H]12 (some centres not stated) | 130 to 133 |
| O=C(NCc1ccccc1)c1ccccc1-c1ccccc1CNS(=O)(=O)c1cccc([N+](=O)[O-])c1 | 175 |
| CCC(CC)c1nn(-c2ccc(Cl)cn2)cc1CCCO | 62 to 63 |
| CSc1sc(C(=O)N2CCCCCC2)c2c1-c1oncc1C(C)(C)C2 | 99 to 101 |
| CCCc1c(OCCCCCOc2ccc3c(c2CCC)OC(C(=O)O)CC3)ccc(C(C)=O)c1O (configuration not stated) | 66 to 68 |
| Nc1ccc2cccc(N3CCNCC3)c2c1 | 184 to 186 |
| COC(=O)C1=C(c2ccccc2)NC(C)=C(C(=O)OC(C)C)C1c1cccc([N+](=O)[O-])c1 (configuration not stated) | 184 to 186 |
| CN(c1cccc2cc(C3=NCC4(CCN(CC#N)CC4)S3)[nH]c12)S(=O)(=O)c1cccs1 | 211 |
| CCCCOc1ccc(S(N)(=O)=O)cc1 | 99 to 101 |
| Cc1c(Br)csc1-c1nc(-c2c(F)cccc2Cl)nn1C | 111 to 112 |
| Nc1ccc(C(=O)c2cc(F)ccc2F)cc1 | 101 to 103 |
| O=C(O)c1c(-c2cccc([N+](=O)[O-])c2)oc2ncnc(O)c12 | > 300 |
| O=C1CC(C(F)(F)F)CC(=O)N1c1cc(OCSc2ccccc2)c(Cl)cc1F | 108 to 110 |
| COc1ccc(-c2c(Br)c(CBr)nc3sc4c(c23)CCN(Cc2ccccc2)C4)cc1 | 177 to 178 |
| Cc1oc(-c2ccccc2)nc1CCC(=O)c1ccc(C=C2SC(=O)NC2=O)cc1 | 224 to 225 |
| CC(n1ncnn1)C(O)(c1ccc(OC(F)(F)F)cc1)c1ccc(OC(F)(F)F)cc1 (configuration not stated) | 55 to 58 |
| CCCCc1nc2c(N)nc3ccccc3c2n1CCCCCS(C)=O (configuration not stated) | 119 to 121 |

| Structure (SMILES) | melting point [°C] |
| --- | --- |
| Cn1cc(-c2ccccc2)c(C(=O)NCCNC(=O)OC(C)(C)C)n1 | 145 |
| COC(=O)N=C1SCC(=O)N1c1c(-c2ccccc2)csc1NC(=O)CN(C)C | 124 to 126 |
| O=C(O)Cc1ccc2c3ccccc3n(Cc3ccccc3)c2c1 | 149 to 150 |
| CC(C)(C)OC(=O)Nc1ccc(-c2cccc(F)c2)cc1NC(=O)CC(=O)c1cccc(C#N)c1 | 148 to 150 |
| COc1ncnc2c(NC3OC(CO)C(O)C3O)ncnc12 (configuration not stated) | 183 |
| N#CCCCOc1ccc(CNc2ccc(-n3nc(-c4cccnc4)cc3C#N)cc2)cc1 | 128 to 129 |
| COc1cc(OC)cc(C(=O)P2(=O)Oc3ccccc3-c3ccccc32)c1 (configuration not stated) | 140 to 142 |
| O=C(O)CC1c2ccccc2CCc2ccccc21 | 163 to 165 |
| CC12CCC(=O)C=C1CCC1C2=CCC2(C)C1CCC2(O)C#N (configuration not stated) | 225 to 228 |
| COC(=O)C1(CC#N)C(=O)N(C)C(=O)c2ccccc21 (configuration not stated) | 120 to 122 |
| CC(C)C/C(=C/CCNC(=O)OCc1ccccc1)C(=O)O | 70 to 71 |
| Cc1c(C)c2c(c(C)c1O)CCC(C)(CCOc1ccc(CC3SC(=O)NC3=O)cc1)O2 (configuration not stated) | 152 to 154 |
| C[C@H](NS(=O)(=O)c1ccc(-c2c(C#N)c3cc(F)c(OC(F)F)cc3n2C2CCC2)nc1)C(F)(F)F | 172 to 175 |
| COc1ccc(C(=O)Nc2c(Cl)cncc2Cl)c2c1oc1ccc(Br)cc12 | 308 |
| CC(C)N(CCC(CCN1CCCC1)(C(N)=O)c1ccccc1)C(C)C (configuration not stated) | 79 to 80 |
| C=C(C)c1cc(Br)c(Oc2nc(C)nc3c2nnn3C(CCC)CCC)c(OC)c1 | 110 to 115 |
| COC(=O)C(O)C(CC(C)C)NC(=O)C(Cc1c[nH]cn1)NC(=O)C(CC(=O)N(C)C)Cc1cccc2ccccc12 (mixture of isomers) | 117 to 121 |
| CC(=O)C(=Cc1ccc2c(c1)OCO2)C(C)=O | 79 to 80 |
| COc1cc(COc2ccc(N)nn2)cc(OC)c1OC | 142 to 144 |
| COc1ccc(CNc2nnc(-n3ccc(=O)cc3)c3ccc(C#N)cc23)cc1Cl | 218 to 219 |
| CCCCCCCCOCC(O)COc1ccc(-n2nc3ccccc3n2)c(O)c1 (configuration not stated) | 51 to 55 |
| COc1ccc(N2CCN(Cc3n[nH]c4ccccc34)CC2)cc1 | 167 to 168 |
| CCc1cnc(SC(C)(C)C)c(C#N)c1 | 63 to 66 |
| O=C(Nc1ccc(Oc2ccnc(NC3CCC3)n2)c2ccccc12)c1cc(F)cc(N2CCOCC2)c1 | 110 to 112 |
| CC(C(N)=O)c1ccc(-c2cn3ccccc3n2)cc1 (configuration not stated) | 219 to 220 |

| Structure (SMILES) | melting point [°C] |
| --- | --- |
| O=S1(=O)NCC(O)c2ccsc21 (configuration not stated) | 138 to 140 |
| CON1CCC2(CC1)C(O)=C(c1cc(C)c(C)cc1Cl)C(=O)N2C | 191 to 192 |
| Nc1nc2ccccc2c2c1nc(CCCOc1ccccc1)n2CCCNC(=O)c1ccccc1 | 192 to 194 |
| CC(=O)S[C@@H]1CCNC1=S | 98 to 100 |
| O=C(NC(Cc1ccccc1)C(=O)O)c1ccc2cc(OCc3ccccc3)ccc2c1 (configuration not stated) | 207 |
| CC#CCOc1cc2ncc(C#N)c(Nc3cc(OC)c(Cl)cc3Cl)c2cc1OC | 193 to 197 |
| N=C(C1=C(O)C(=O)c2ccccc2C1=O)c1ccccc1 | 258 to 259 |
| OCCc1cnc(Nc2n[nH]c3ccc(-c4ncccc4Cl)cc23)s1 | 206 to 208 |
| NS(=O)(=O)c1ccc(-c2c(-c3ccccc3)noc2CC(=O)C(F)(F)F)cc1 | 132 to 139 |
| CN(C)CCNC(=O)c1cc(-c2cccc(Cl)c2)c2cc(C(c3ccc(Cl)cc3)c3cncn3C)ccc2n1 (configuration not stated) | 184 |
| O=C(O)[C@H](CCc1ccccc1)NS(=O)(=O)c1ccc2c(c1)Cc1ccccc1-2 | 128 to 131 |
| NC(=O)C1CCC(=O)N1CC#CCN1CCCCC1 (configuration not stated) | 143 to 145 |
| CC(=O)N1c2ccccc2Sc2cc(F)ccc21 | 125 |
| c1ccc(-c2noc3ccccc23)c(CNCc2ccccc2-c2noc3ccccc23)c1 | 138 |
| CCCN1c2nc(-c3cn[nH]c3)ccc2NC(=O)c2cccnc21 | 291 to 292 |
| CCCS(=O)(=O)Oc1c(C(=O)c2nn(C)c(=O)n(-c3ccccc3)c2=O)cnn1C(C)C | 51 to 53 |
| COc1c(OC(C)=O)ccc2cc[nH]c12 | 241 to 244 |
| O=CN(O)[C@@H](CCCO)CS(=O)(=O)c1ccc(Oc2ccc(OC(F)(F)F)cc2)cc1 | 85 to 86 |
| FC(F)(F)c1ccc(Nc2nccc(-c3cccc(Cl)c3)n2)cc1 | 202 |
| COC(=O)c1cc2ccc(C)cc2n1C(C)=O | 51 to 53 |
| CS(=O)(=O)c1ccc(-c2cnn(-c3ccc([N+](=O)[O-])cc3)c(=O)c2-c2ccc(F)cc2)cc1 | 110 to 116 |
| O=C1CC(NC(=O)c2c[nH]c3ccccc23)CCCN1 (configuration not stated) | 243 to 244 |
